# Measurements from publication PMC11477965, “Synthesis and Anti-Liver Fibrosis Research of Aspartic Acid Derivatives” (Molecules, 2024).
# Entries after “also recorded” stand apart in the source; their conditions may differ. Like-named read-outs stand apart in the source and are kept apart here. Where a SMILES comes first, the peptide text is derived from it.
# Tests used:
# COL1A1 promoter = COL1A1 promoter luciferase reporter inhibition assay in LX-2 cells; assay type: cell-based, human; conditions: for inhibition at 500 µM: read-out: Inhibitory Rate (%) of COL1A1 promotor; for relative fluorescence unit (RFU) of COL1A1 promotor: mean ± SD, n = 3, Control 124874.7 ± 10750.9;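 for all read-outs here: Anti-fibrotic screen: luciferase reporter driven by the COL1A1 promoter in human hepatic stellate LX-2 cells, compounds applied in complete medium in 96-well plates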
# Protocol: A total of 32 target compounds, the lead compound L-Asp, and the positive control epigallocatechin gallate (EGCG), known for its anti-hepatic fibrotic activity [29], were tested for inhibitory effects on COL1A1 promoter activity at a concentration of 0.5 mM.
# The LX-2 cells at 90% confluent were transfected with the plasmid of pGL4.17-COL1A1 promoter using Lipofectamine 2000 (Invitrogen, 11668019, Carlsbad, CA, USA) with Opti-MEM serum-free medium (Gibco, 1930104). After culturing for 6 h, the cells were replaced with a complete medium and seeded in 96-well plates for 24 h. The compound to be tested was prepared using a complete medium and added to the 96-well plate. After 24 h, Bright-Glo Luciferase Assay System (Promega, Madison, WI, USA) was used to detect the activity of COL1A1 promoter and the assaying inhibition rate.
# [1] = SRB cytotoxicity assay in LX-2 cells; assay type: cell-based, human; conditions: human, LX-2 cells, SRB assay
# Protocol: (§1) Their cytotoxicity in LX-2 cells was assessed across various concentrations using the SRB assay, and the cytotoxic concentrations (CC50) were determined. The selectivity index (SI), calculated as the ratio of CC50 to the […] (IC50), was employed to evaluate the compounds’ effects on the COL1A1 promoter (Table 2).
# (§2) The LX-2 cells were seeded in a 96-well plate when reaching 90% confluent. After 24 h, the compound to be tested was prepared using a complete medium and added to the 96-well plate for 24 h. After washing with PBS, the cells were fixed with 10% (wt/vol) trichloroacetic acid for 1 h, washed with deionized water and dried completely and, after staining with SRB for 20 min, the excess dye was washed with 1% acetic acid (vol/vol) three times. The dye bound to the protein was dissolved with 10 mM Tris base solution and OD values were determined at […].
# LX-2 cells [2] = assay: SRB cytotoxicity assay in LX-2 cells; assay type: cell-based, human; conditions: CC50 in LX-2 cells / IC50 on COL1A1 promoter
# Protocol: as §1, §2
# [3] = tested on: fibro-genic gene expression (fibronectin, COL1A1, TGFβ, α-SMA, CTGF, and TIMP1); assay: Western blot of fibro-genic proteins in TGFβ1-activated LX-2 cells; assay type: cell-based, human; conditions: TGFβ1 2 ng/mL, 24 h; for expression of fibro-genic genes (western blot): compound 100 μmol/L
# Protocol: (§3) To evaluate the anti-fibrotic efficacy in vitro, we assessed the downregulatory effects of ten active compounds (3, 4c, 4d, 8a, 9, 28a, 32a, 41, 43 and 45) and L-Asp on fibro-genic gene expression (fibronectin, COL1A1, TGFβ, α-SMA, CTGF, and TIMP1) using western blot analysis. LX-2 cells were activated with TGFβ1 (2 ng/mL) and concurrently treated with each compound (100 μmol/L) for 24 h.
# (§4) After the confluence of LX-2 cells reached 90%, the cells were treated with serum-free medium for 24 h. 2 ng/mL TGFβ1 or 1 μg/mL LPS were used in combination with compounds of different concentrations for 24 h. The samples of cells were lysed in RIPA buffer supplemented with protease inhibitor cocktail (Roche) and separated by SDS-PAGE. After the proteins were transferred to the PVDF membrane, 5% skim milk in TBS-T buffer was used to block them at room temperature for 2 h. Specific primary and secondary antibodies were used to detect the target protein. Finally, the blot was visualized using the Tanon 5200 system (Tanon, Shanghai, China) and the protein expression of GAPDH was used as the internal reference.
# LX-2 cells [4] = assay: LPS-induced activation of LX-2 cells, fibro-genic proteins (western blot); assay type: cell-based, human; conditions: LPS 1 μg/mL, 50, 100, 200, and 500 μmol/L, 24 h
# Protocol: Taking the results of Figure 3 and Figure 4 together, it seems that compounds 41 and 8a alleviate inflammation and inhibit liver fibrosis through the IKKβ-NF-κB signaling pathway, as indicated in Figure 5.
# as §4
# [5] = tested on: IKKβ-NF-κB signaling pathway; assay: LPS-induced inflammation in LX-2 cells (western blot); assay type: cell-based, human; conditions: 24 h; for LPS-induced phosphorylation and baseline expression of IKKβ, NF-κB phosphorylation and expression: LPS 1 μg/mL, 50, 100, 200, and 500 μmol/L; for IL-6 expression / inhibition of inflammatory factors: LPS 1 μg/mL; for inhibition of inflammatory factors: 500 μM bands scanned
# Protocol: Inflammation is crucial in the onset and progression of liver fibrosis, and fibrosis can further exacerbate tissue inflammation. […] To assess the anti-inflammatory effects of Compounds 41 and 8a, LX-2 cells were pre-incubated in serum-free medium for 24 h before LPS stimulation, followed by treatment with different concentrations of the compounds in serum-free medium containing 1 μg/mL LPS for another 24 h. Changes in inflammatory cytokine protein levels were analyzed using western blotting.
# The IKKβ-NF-κB signaling pathway has been closely linked to the severity of liver fibrosis, with IKKβ serving as the primary catalytic subunit responsible for NF-κB activation. Therefore, this study investigated the NF-κB pathway by measuring IKKβ kinase activity. […] To evaluate the effects of the target compounds on LPS-induced inflammatory cytokines, four concentrations (50, 100, 200 and 500 μmol/L) were tested, and the results were analyzed by grayscale scanning of western blot bands using ImageJ software (version 1.53t), with normalization to GAPDH protein levels.
# as §4
# [6] = tested on: mRNA expression of COL1A1, TGFβ1, and MMP2; assay: RT-qPCR of fibro-genic mRNA in TGFβ1-activated LX-2 cells; assay type: cell-based, human; conditions: TGFβ1 2 ng/mL, 24 h
# Protocol: as §3
# The LX-2 cells were seeded in a 6-well plate and cultured in a complete medium at 37 °C in a 5% CO2 environment until reaching 90% confluence. After culture without serum medium for 24 h, the cells were treated with 2 ng/mL TGFβ1 or 1 μg/mL LPS and the right concentration of compounds for 24 h. Total RNA was extracted using TRIzol reagent and purified by NucleoSpin RNA Clean-up Kit (Macherey-Nagel, Munich, Germany). Total RNA was reverse-transcribed into […] using a Transcriptor First Strand cDNA Synthesis Kit (Roche, Basel, Switzerland). The relative expression levels of the target gene were determined using a TaqMan probe with an ABI Q3 quantitative real-time PCR system, while GAPDH was utilized as an internal control for mRNA expression. The fold change of target mRNA expression was calculated using Equation 2^−∆∆Ct.
# [7] = Homo sapiens, LX-2, LX-2 cells, read-out: IC50 to inhibit the activity of COL1A1 promoter by 50%
# [8] = Homo sapiens, LX-2 cells, 0.5 mM, 24 h
# [9] = 24 h, read-out: CC50, cytotoxic concentration required to inhibit the growth of LX-2 cells by 50%
SMILES,IC50 (COL1A1 promoter; [7]) [µM],inhibition at 500 µM (COL1A1 promoter; [8]) [%],relative fluorescence unit (RFU) of COL1A1 promotor (COL1A1 promoter; LX-2 cells) [RFU],"CC50 at 24 h [1, 9] [µM]","SI, selectivity index (CC50/IC50) (LX-2 cells [2])",melting point [°C],expression of fibro-genic genes (western blot) [3],"inhibition at 500 µM (COL1A1 promoter; Homo sapiens, LX-2, 24 h) [%]","IC50 (COL1A1 promoter; Homo sapiens, LX-2, read-out: IC50 to inhibit the activity of COL1A1 promoter by 50%) [µM]","protein expression of COL1A1, fibronectin, α-SMA, and CTGF (LX-2 cells [4])",CC50 at 24 h ([1]; read-out: CC50 in LX-2 cells) [µM],"LPS-induced phosphorylation and baseline expression of IKKβ, NF-κB phosphorylation and expression [5]",IL-6 expression [5],inhibition of inflammatory factors [5],"protein levels of fibronectin, COL1A1, and α-SMA following TGFβ1 stimulation ([3]; different concentrations)","IC50 (COL1A1 promoter; LX-2 cells, read-out: IC50 to inhibit the activity of COL1A1 promoter by 50%) [µM]","mRNA expression of COL1A1, TGFβ1, and MMP2 [6]"
"CC(C)(C)OC(=O)C[C@H](NC(=O)OCC1c2ccccc2-c2ccccc21)C(=O)NCCO [Compound 3, Tert-butyl (S)-3-((((9H-fluoren-9-yl)methoxy)carbonyl)amino)-4-((2-hydroxyethyl)amino)-4-oxobutanoate]",327 ± 17.1,81.5 ± 5.62,23056.9 ± 7017.3,660 ± 24.6,2.01,93.2 to 95.6,,,,,,,,,,,
"C[C@H](N)C(=O)N[C@@H](CC(=O)O)C(=O)O [Compound 8a, L-alanyl-L-aspartic acid] (H-Ala-Asp-OH)",,,63265.3 ± 16582.4,13900,13.16,,no significant inhibitory effect,49.3 ± 13.3,1050 ± 111,significantly reducing,13000,dose-dependent reduction,significantly suppressed,superior inhibitory effects,,,
"CC[C@@H]1C2C[C@H](O)CC[C@]2(C)C2CC[C@@]3(C)C(CCC3[C@H](C)CCC(=O)N[C@@H](CC(=O)O)C(=O)O)C2[C@@H]1O (stereo partly drawn) [Compound 9, ((4R)-4-((3R,6R,7R,10S,13R)-6-ethyl-3,7-dihydroxy-10,13-dimethylhexadecahydro-1H-cyclopenta[a]phenanthren-17-yl)pentanoyl)-L-aspartic acid]",270 ± 47.9,97.4 ± 3.53,3188.3 ±4407.2,351 ± 19.4,1.30,108.2 to 110.6,,,,,,,,,,,
"COC(=O)[C@H]1C[C@H](Oc2cc(Cl)nn3c(-c4ccc(OC)c(OC)c4)cnc23)CN1C(=O)OC(C)(C)C [Compound 41, 1-(tert-butyl)-2-methyl-(2R,4S)-4-((6-chloro-3-(3,4-dimethoxyphenyl)imidazo [1,2-b]pyridazin-8-yl)oxy)pyrrolidine-1,2-dicarboxylate]",30,66.7 ± 1.96,41555.6 ± 2445.9,510 ± 51.5,16.68,,significantly suppressed,,,significantly reducing; also recorded: potent inhibition,,dose-dependent reduction,significantly suppressed,superior inhibitory effects,"notably inhibited; also recorded: reduced the protein levels of fibronectin, COL1A1, and α-SMA in a dose-dependent manner",30.6 ± 0.3,markedly decreased
"COc1ccc(-c2cnc3c(O[C@@H]4CN[C@@H](C(=O)O)C4)cc(C)nn23)cc1OC [Compound 45, (2R,4S)-4-((3-(3,4-dimethoxyphenyl)-6-methylimidazo [1,2-b]pyridazin-8-yl)oxy)pyrrolidine-2-carboxylic acid]",298 ± 51.7,69.6 ± 8.48,37918.9 ± 10579.6,632 ± 11.2,2.12,,,,,,,,,,,,
